Assay [1] concerns the target T1, synthetic protease [amino acid residues 69-167 of the pol open reading frame] (Human immunodeficiency virus type 1 group M subtype B, UniProt P03366).
T1 construct: amino acid residues 69-167 of the pol open reading frame in Ratner, L. et al, Nature, 313, 277 (1985); made in house; host or cells: chemical synthesis (Merrifield solid-phase), no expression host
The assay can be described thus: Assay for inhibition of synthetic viral protease with peptide substrate Val-Ser-Gln-Asn-Tyr-Pro-Ile-Val (HPLC). In kind it is biochemical, HIV. Particulars: pH 5.5, 30°C, 1 hr. As for the experimental part:
Inhibition studies of the reaction of the synthetic protease [amino acid residues 69-167 of the pol open reading frame in Ratner, L. et al, Nature, 313, 277 (1985) and synthesized by Merrifield solid-phase synthesis] with a peptide substrate [Val-Ser-Gln-Asn-Tyr-Pro-Ile-Val, 2 mg/mL when the reaction is initiated] were in 50 mM Na acetate, pH 5.5, at 30°C for 1 hr. Various concentrations of inhibitor in 1.0 µl DMSO were added to 36 µl of assay solution and the reaction initiated by the addition of 4 ul (1.6 µg) of synthetic protease. The reaction was quenched with 160 ul of 12% acetic acid. Products of the reaction were separated by HPLC (VYDAC wide pore 5 cm C-18 reverse phase, acetonitrile gradient, 0.1% trifluoroacetic acid). The extent of inhibition of the reaction was determined from the peak heights of the products. HPLC of the products, independently synthesized, provided quantitation standards and confirmation of the product composition.

Another assay deals with T2, synthetic viral protease (Human immunodeficiency virus type 1 group M subtype B, UniProt P03366).
T2 construct: amino acid residues 69-167 of the pol open reading frame in Ratner, L. et al, Nature, 313, 277 (1985); made in house; host or cells: chemical synthesis (Merrifield solid-phase), no expression host
The assay can be described thus: Inhibition of beta-casein hydrolysis by synthetic viral protease (14C-beta-casein, TCA soluble counts). In kind it is biochemical, HIV. Particulars: 14C-beta-casein substrate, 4 hours. As for the experimental part: Inhibition of the synthetic viral protease reaction, of Example 2, with ¹⁴C - beta-casein as substrate in lieu of peptide substrates, was performed. Beta-casein (Sigma) was dialysed overnight at 4°C in 40 mM KPO₄, pH 7.0. Four microliters of the substrate (0.31 mg/ml) are used in each 40 µl reaction. After reaction with the protease for 4 hours, 10 µl of 10% bovine serum albumin and 500 µl of 10% trichloroacetic acid are added, the sample placed on ice for 30 min and centrifuged for 10 min at 15,000 g. From the supernatant a 300 µl aliquot is withdrawn and diluted into 7 ml liquid scintillation cocktail. Typical background level of TCA soluble counts (no enzyme added) is 200 and no inhibitor samples give a net signal of 1000 cpm.

Setting [2] is: Inh. Conc. 0.01 µM, listed as Cmpd A.
[3] abbreviates: Inh. Conc. 0.1 µM, listed as Cmpd A.
Setting [4] is: Inh. Conc. 1 µM, listed as Cmpd A.
Where [5] appears, read: Inh. Conc. 0.01 µM, listed as Cmpd B.
The mark [6] stands for this setting: Inh. Conc. 0.1 µM, listed as Cmpd B.
Setting [7] is: Inh. Conc. 1 µM, listed as Cmpd B.

`CC(C)C[C@H](NC(=O)C(Cc1ccccc1)C[C@H](O)[C@H](Cc1ccccc1)NC(=O)[C@H](Cc1ccccc1)NC(=O)[C@H](Cc1ccccc1)NC(=O)OC(C)(C)C)C(=O)N[C@@H](Cc1ccccc1)C(N)=O` (single isomer, unassigned) [A, N′-(1,1-Dimethylethoxycarbonyl)-Phe-Phe-5(S)-Amino-4(S)-Hydroxy-6-Phenyl-2(R or S)-(Phenylmethyl)Hexanoyl-Leu-Phe-Amide]: the “PERCENT INHIBITION” value is recorded as 0% in assay [1] (setting [2]); 20% in assay [1] (setting [3]); 40% in assay [1] (setting [4]); 100% in assay [1] (Inh. Conc. 100 µM); 0% at synthetic viral protease (setting [2]); 14% on synthetic viral protease (setting [3]). In addition, the “PERCENT INHIBITION” value at synthetic viral protease (setting [4]) came out at 82%; at synthetic viral protease (Inh. Conc. 10 µM, listed as Cmpd A), 65%; on synthetic viral protease (Inh. Conc. 100 µM, listed as Cmpd A), 97%.

With `CC(C)C[C@H](NC(=O)C(Cc1ccccc1)C[C@H](O)[C@H](Cc1ccccc1)NC(=O)[C@H](Cc1ccccc1)NC(=O)[C@H](Cc1ccccc1)NC(=O)OC(C)(C)C)C(=O)N[C@@H](Cc1ccccc1)C(N)=O` (single isomer, unassigned) [Compound B, N′-(1,1-Dimethylethoxycarbonyl)-Phe-Phe-5(S)-Amino-4(S)-Hydroxy-6-Phenyl-2(S or R)-(Phenylmethyl)Hexanoyl-Leu-Phe-Amide], the “PERCENT INHIBITION” value in assay [1] (Inh. Conc. 0.001 µM) is recorded as 20%; in assay [1] (setting [5]), 60%; in assay [1] (setting [6]), 100%; in assay [1] (setting [7]) it was 100%; in assay [1] (Inh. Conc. 10 µM), 100%; in assay [1] (Inh. Conc. 100 µM), 100%. The “PERCENT INHIBITION” value was 20% at synthetic viral protease (Inh. Conc. 0.001 µM); 67% on synthetic viral protease (setting [5]); 97% at synthetic viral protease (setting [6]); 95% at synthetic viral protease (setting [7]); 91% at synthetic viral protease (Inh. Conc. 10 µM, listed as Cmpd B); 60% at synthetic viral protease (Inh. Conc. 100 µM, listed as Cmpd B).
